Results published in patent publication US6339078B1, “Methods of prevention and treatment of ischemic damage” (University of Florida Research Foundation, Inc., priority 1999, dated 2002).
“Also recorded” adds a separate entry of the source.

What was measured:
[1] = tested on: ovariectomized rats, ischemia induced by middle cerebral artery occlusion (MCAO); assay: Ischemic area in brain slices after MCAO, estrogen pretreatment; type: in vivo, rat; conditions: for reduction of ischemic area vs sham: Silastic tube 24 h prior to MCAO, sacrifice 24 h after MCAO
[2] = Blood levels after single subcutaneous bolus injection in corn oil (radioimmunoassay); type: in vivo, male Sprague-Dawley rats; conditions: 100 μg/kg sc in corn oil
Method: The drug was dissolved in corn oil at 100 μg/ml and the final dosage delivered was 100 μg/kg. […] Venous blood was collected into heparinized tubes, centrifuged and the plasma was collected and frozen. Levels of 17β-estradiol were determined using a commercially supplied radioimmunoassay kit.

[3] = tested on: primary rat brain capillary endothelial cells (BCEC); assay: BCEC mortality under combined anoxia and hypoglycemia (Trypan blue); conditions: 2 nM; 100 mg % hypoglycemia and anoxia 2 hours
Method: Cell media contained 200 mg % or 100 mg % glucose. Culture dishes containing BCEC were placed in either an incubator or a nitrogen filled chamber for two hours. Trypan blue staining was used to distinguish live cells from dead cells. Two cell countings at two different hemacytometer squares were averaged. Mean±SEM are depicted (n=8.12). *<0.05 vs. corresponding vehicle control.
Nitrogen gas was influxed to replace the oxygen inside the chamber. The chamber was sealed and placed in the incubator for four hours for nonhypoglycemic cultures and 2 hours for hypoglycemic cultures.
Cell mortality was counted using Trypan blue staining method. Cell death percentage was calculated as dead cell/alive cell×100%.
Statistical methods used included two-way analysis of variance, applied to determine the significance of the difference among the experimental groups. Kruskal-Wallis nonparametric analysis was used for data presented as percentage. […] P<0.05 was considered significant.

[4] = tested on: ovariectomized rats, ischemia induced by middle cerebral artery occlusion (MCAO); assay: Ischemic area in brain slices after MCAO, estrogen post-treatment at 40 or 90 minutes; type: in vivo, rat; conditions: administered 90 minutes after MCAO
[5] = tested on: primary rat brain capillary endothelial cells (BCEC); assay: BCEC mortality under hypoglycemia (Trypan blue); type: cell-based; conditions: 2 nM; normal glucose 200 mg %
Method: Hypoglycemia experiments were undertaken. […] The glucose concentration of the culture media was then adjusted from 20 mg % to 200 mg % by adding appropriate amount of D-(+)-glucose to the glucose-free media and monitored by Glucose and L-Lactate Analyzer (YSI model 2300 STAT plus, YSI, Inc., Yellow Springs, Ohio). The hypoglycemic cultures were maintained for 24 hours or 48 hours prior to staining with Trypan blue. Cell mortality was counted using Trypan blue staining method. Cell death percentage was calculated as dead cell/alive cell×100%. Statistical methods used included two-way analysis of variance, applied to determine the significance of the difference among the experimental groups. Kruskal-Wallis nonparametric analysis was used for data presented as percentage. […] P<0.05 was considered significant.

[6] = tested on: ovariectomized rats, ischemia induced by middle cerebral artery occlusion (MCAO); assay: Ischemic lesion volume (TTC) after MCAO, post-treatment at 0.5-4 hours; type: in vivo, rat; conditions: iv 100 μg/kg HPCD-complexed plus Silastic pellet at 0.5, 1, 2, or 3 hours post-occlusion; 48 hours after MCAO

Row | Compound | reduction of ischemic area vs sham ([1]; slice C) [%] | reduction of ischemic area vs sham ([1]; slice D) [%] | reduction of ischemic area vs sham ([1]; slice E) [%] | protective effect on ischemic area (in words) ([1]; tissue slices A-E, sustained subcutaneous delivery initiated 24 hours prior) | ischemic area, percent of cross-sectional area of brain sections evaluated ([1]; pretreatment 24 h prior to MCAO, 3 brain slices, sham 25.6±5.7%) [%] | protective effect on ischemic area (in words) ([1]; tissue slices A-D, subcutaneous injection two hours prior to ischemic event) | blood level ([2]; 30 minutes after administration (peak)) | blood level ([2]; 4 hours) | blood level (in words) ([2]; by 25 hours) | protection of BCEC (in words) [3] | reduction of ischemic area [4] [%] | difference in % cell death with and without estrogen (in words) [5] | protection, ischemic lesion volume (in words) [6]
1 | C[C@]12CC[C@@H]3c4ccc(O)cc4CC[C@H]3[C@@H]1CC[C@H]2O [17α-estradiol] | 55 | 66 | 81 | significant protective effect; also recorded: smaller ischemic areas compared with the sham treated animals in all slices evaluated |  |  |  |  |  |  |  |  | 
2 | C[C@]12CC[C@@H]3c4ccc(O)cc4CC[C@H]3[C@@H]1CC[C@@H]2O [17β-estradiol] |  |  |  |  | 9.8±4.0 | significant protective effect | 4,610 pg/ml | 2,004 pg/ml | near zero | effective in protecting cultured BCEC | 31 | little difference | significant protection
